Experimental data taken from US6818407B2, “Anti-endotoxic antimicrobial cationic peptides and methods of use therfor” (priority 1998, dated 2004).
Marks after values point to notes of the source that are not given here. Ends that are not written are not given here.

Experiments:
[1] = test system: V. anguillarum; test: Single intraperitoneal injection of peptide along with V. anguillarum into juvenile coho salmon; assay type: in vivo; conditions: single injection of peptide along with bacteria; bacteria alone control 60%
Description: (§1) Fish loss from disease is a significant problem in aquaculture worldwide. However, expression of natural cationic peptide genes in fish could increase disease resistance because of continual cellular production of the antimicrobial peptides. In order to choose optimal peptides for transgenic fish, the antimicrobial activities of some cationic peptides were determined by testing minimum inhibitory concentrations (MICs) in vitro. […] The in vivo effect of CEME was examined by intraperitoneal injection of the peptide along with V. anguillarum into juvenile coho salmon. Fish in the bacteria alone control group had 60% mortality, while fish receiving peptide and bacteria injections had 82% mortality. […] Therefore, constant delivery of CEME and Pleurocidin-CN using intraperitoneal mini-osmotic pumps were carried out. Twelve days after pump implantation, the fish received intraperitoneal injections of V. anguillarum. The CEME and pleurocidin-CN pump group had longer survival time and lower mortalities than the control groups (50% Vs. 13%, and 75% Vs. 5%, respectively). Indolicidin transgenic cutthroat trout were made using a construct including an MT promoter, growth hormone signal, pre-region, indolicidin, and terminator. Transgenic individuals were identified by serum analysis using PCR with construct-specific oligonucleotide primers. […]

[2] = test system: V. anguillarum; test: Protection of coho salmon, peptide delivered constantly by intraperitoneal mini-osmotic pump; assay type: in vivo, juvenile coho salmon; conditions: CEME by intraperitoneal mini-osmotic pump; control group 50%
Description: Constant delivery of peptide P-CN using intraperitoneal mini-osmotic pumps was carried out. Briefly, juvenile coho salmon were divided into three treatment groups: A. Bacterial injection alone (12 fish). B. Fish saline osmotic pump and bacterial injection (12 fish). C. A combination of P-CN osmotic pump and bacterial injection (19 fish). The fish were anaesthetized and implanted (peritoneal cavity) with mini-osmotic pumps having a pumping rate of 0.13 µl/hour. Heaters were placed in the tanks to keep the water temperature between 12 and 13° C. Pumps were filled with concentrated P-CN to deliver approximately […] peptide to fish over a 30-day period. Twelve days after pump implantation, the fish received intraperitoneal injections of V. anguillarum ([…]). Mortalities were first noticed on day 3 for the group injected with bacteria alone and on day 5 for the group which received saline osmotic pumps as well as bacterial injections. However, there was no significant difference in mortality between the bacterial injection alone group and the saline osmotic pump group (67% vs. 75%). Mortalities were delayed for the P-CN osmotic pump group. The P-CN osmotic pump group had only one fish die on day 6 over the 30 days experiments with an accumulated mortality of 5%. […] Furthermore, since cationic peptides are not effective in a single treatment and constant administration is necessary, this argues for the potential success of transgenic fish expressing peptide P-CN.
as §1, with “terminator.” for “terminator. Transgenic individuals were identified by serum analysis using PCR with construct-specific oligonucleotide primers.”

[3] = test system: Pseudomonas aeruginosa PAO; test: Chronic Pseudomonas aeruginosa lung infection in rats, aerosol treatment; assay type: in vivo; conditions: lungs, quantitative culture; aerosol 10 ml of 5 mg/ml once daily for three days; untreated control 1.2 × 10^6
Description: Fifteen animals were utilized in these experiments (5 animals in each of three groups). All animals were inoculated intratracheal with 10^4 Pseudomonas aeruginosa PAO in agar beads. Three days following inoculation, rats were exposed to aerosol preparations from and Aero-Tech II nebulizer (CIS-US, Bedford, Mass.). The nebulizer was operated at 45 psi, with a flow rate of 10 L/min and contained 10 ml of the preparation to be aerosolized. The 10 ml volume was dispensed in 25-30 minutes. Animals were treated once daily for three days; control animals received daily exposure to 10 mls of 10 mM sodium citrate (pH 7.0); one treatment group received daily exposure to 10 mls of 10 mM sodium citrate (pH 7.0) containing 5 mg/ml of CM3; one treatment group received daily exposure to 10 mls of 10 mM sodium citrate (pH 7.0) containing 5 mg/ml of Cpα2. Animals were sacrificed on day 3, at one hour following the last exposure. The lungs of the treatment and control animals were removed for quantitative culture.

[4] = test system: E. coli; test: MIC, broth microdilution assay in polypropylene microtiter trays; assay type: cell-based; conditions: average of three separate experiments
Procedure, shortened: (§2)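 MIC values record the lowest peptide concentration at which turbidity (OD) remained unchanged throughout the assigned period.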

[5] = test system: S. aureus K147; test: as above; assay type: cell-based; conditions: average of three separate experiments
Procedure, shortened: as §2

[6] = test system: S. epidermis; test: as above; assay type: cell-based; conditions: average of three separate experiments
Procedure, shortened: as §2

[7] = test system: S. aureus; test: as above; assay type: cell-based; conditions: average of three separate experiments
Procedure, shortened: as §2

[8] = test system: P. aeruginosa; test: as above; assay type: cell-based; conditions: average of three separate experiments
Procedure, shortened: as §2

[9] = Lethal endotoxemia in galactosamine-sensitized mice; assay type: in vivo, CD-1 mice; conditions: peptide 200 μg intraperitoneal within 10 min of 10 μg LPS; 24 hours post injection; 5 mice per group; no peptide 100
Description: To confirm this in vivo, endotoxic shock was induced by intraperitoneal injection of 10 μg of E.coli 0111:B4 LPS in phosphate-buffered saline (PBS; pH 7.2) into galactosamine-sensitized 8- to 10- week old female CD-1 mice (5 per group). In experiments involving peptides, 200 μg in 100 μl of sterile water was injected at separate intraperitoneal sites within 10 min of LPS injection. Survival was monitored at 24 hours post injection.

[10] = test system: β-lactamase derepressed mutant (H547) of P. aeruginosa; test: microbe, parasite or virus in culture; assay type: cell-based; conditions: P. aeruginosa H547
Procedure, shortened: (§3)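 Checkerboard titration in Mueller Hinton broth, peptide against carbenicillin or ciprofloxacin, inoculum 10 μl of 10^−4 dilution of overnight culture, 18-24 h at 37 °C. Combination MIC is the lowest concentration reducing growth >50%. FIC index = A/MIC A + B/MIC B, with ≤~0.5 synergy, 1.0 additivity, >1.0 antagonism.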

[11] = test system: mutant (Nal B, H744) of P. aeruginosa; test: microbe, parasite or virus in culture; assay type: cell-based
Procedure, shortened: as §3

[12] = test system: E. coli; test: Synergy study (checkerboard titration) with hen white lysozyme; assay type: cell-based
[13] = test system: Salmonella typhi; test: as above; assay type: cell-based
[14] = test system: P. aeruginosa (H103); test: as above; assay type: cell-based
[15] = test system: Pseudomonas aeruginosa strain M2; test: Protection of neutropenic CD-1 mice challenged with Pseudomonas aeruginosa; assay type: in vivo; set-up: Survival post bacterial challenge, surviving mice: reference not given here; conditions: for Survival (%) post bacterial challenge: PBS 8
Procedure, shortened: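 Neutropenia induced by three i.p. cyclophosphamide doses ([…], alternate days); mice then infected i.p. with 200-300 organisms/mouse. Peptides (200 µg/mouse = 8 mg/kg) in buffered citrate given i.p. at 30 min (single) or 30 min and 16 hrs (double) post-challenge; PBS control; mean of 2 experiments.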

[16] = cationic peptide concentration, combined with lysozyme
[17] = lysozyme concentration, combined with the peptide

For `CC[C@H](C)[C@H](NC(=O)CNC(=O)[C@@H](NC(=O)[C@H](CCCCN)NC(=O)[C@H](CCCCN)NC(=O)[C@H](Cc1ccccc1)NC(=O)[C@H](CC(C)C)NC(=O)[C@H](CCCCN)NC(=O)[C@H](Cc1c[nH]c2ccccc12)NC(=O)[C@@H](N)CCCCN)[C@@H](C)CC)C(=O)NCC(=O)N[C@@H](C)C(=O)N[C@H](C(=O)N[C@@H](CC(C)C)C(=O)N[C@@H](CCCCN)C(=O)N[C@H](C(=O)N[C@@H](CC(C)C)C(=O)N[C@H](C(=O)N[C@H](C(=O)NCC(=O)N[C@@H](CC(C)C)C(=O)N1CCC[C@H]1C(=O)N[C@@H](C)C(=O)N[C@@H](CC(C)C)C(=O)N[C@H](C(=O)N[C@@H](CO)C(=O)O)[C@@H](C)CC)[C@@H](C)O)[C@@H](C)O)C(C)C)C(C)C` [CEME, reference compound], the Mortality [1] was 82% and the “Mortality, pump group” value [2] was 13%.
For KWKKFIKSLTKSAAKTVVKTAKKPLIV [CM3], the “Mean Colony Forming Units +/− S.D.” value [3] was 7.4 × 10^4 +/− 6.7 × 10^4* CFU, the “MIC E. coli” value [4] was 1 µg/mL and the “MIC S. aureus K147” value [5] was over 64 µg/mL. For the same compound, the “MIC S. epidermis” value [6] was 16 µg/mL, the “MIC S. aureus” value [7] was over 64 µg/mL and the “MIC P. aeruginosa” value [8] was 5 µg/mL. The “Mortality (%)” value [9] was 80%, the “(B) MIC of Carb when combined with peptide” value ([10]; Carbenicillin with peptide at concentration (A)) was 32 µg/mL and the FIC index ([10]; peptide + Carbenicillin, about 0.5 or less synergy, 1.0 additivity, >1.0 antagonism) was 0.75. The “MIC A MIC of Peptides” value ([10]; peptide alone) was 2 µg/mL, the “(A) Peptide doses together with Carb” value ([10]; peptide concentration in combination with Carbenicillin) was “.5 µg/mL” and the “MIC A MIC of Peptides” value ([11]; peptide alone, P. aeruginosa mutant Nal B, H744 (Table 5)) was 2 µg/mL. The “(A) Peptide doses together with Cipro” value ([11]; peptide concentration in combination with ciprofloxacin, Nal B, H744) was “.5 µg/mL”, the “FIC for combination of cationic peptide and lysozyme” value (shortened to “FIC for combination”) [12] was 0.31 and the “Lowest [CP] showing synergy” value [12, 16] was 0.041 µg/mL. For the same compound, the “Lowest [Lyso] showing synergy” value [12, 17] was 15.6 µg/mL, the “FIC for combination” value [13] was 0.75 and the “Lowest [CP] showing synergy” value [13, 16] was 2.61 µg/mL. For the same compound, the “Lowest [Lyso] showing synergy” value [13, 17] was 250 µg/mL, the “FIC for combination” value [14] was 0.50 and the “Lowest [CP] showing synergy” value [14, 16] was 1.3 µg/mL. For the same compound, the “Lowest [Lyso] showing synergy” value [14, 17] was 15.6 µg/mL, the “Survival post bacterial challenge, surviving mice” value (shortened to “Survival post bacterial challenge”) ([15]; double dose (200 μg per mouse i.p. at 30 min and 16 hrs), 16 hr) was 13 and the “Survival post bacterial challenge” value ([15]; double dose, 24 hr) was 13. For the same compound, the “Survival post bacterial challenge” value ([15]; double dose, 41 hr) was 11, the “Survival post bacterial challenge” value ([15]; double dose, 48 hr) was 11 and the “Survival post bacterial challenge” value ([15]; double dose, 64 hr) was 10. The “Survival (%) post bacterial challenge” value ([15]; double dose, 64 hr) was 76%, the “Survival post bacterial challenge” value ([15]; double dose, 72 hr) was 10 and the “Survival (%) post bacterial challenge” value ([15]; double dose, 72 hr) was 76%. The “Survival post bacterial challenge” value ([15]; double dose, 96 hr) was 8, the “Survival (%) post bacterial challenge” value ([15]; double dose, 96 hr) was 61% and the “Survival post bacterial challenge” value ([15]; single dose (200 μg per mouse i.p. at 30 min), 16 hr) was 15. The “Survival post bacterial challenge” value ([15]; single dose, 24 hr) was 15, the “Survival post bacterial challenge” value ([15]; single dose, 41 hr) was 14 and the “Survival post bacterial challenge” value ([15]; single dose, 48 hr) was 13. The “Survival post bacterial challenge” value ([15]; single dose, 64 hr) was 12, the “Survival (%) post bacterial challenge” value ([15]; single dose, 64 hr) was 80% and the “Survival post bacterial challenge” value ([15]; single dose, 72 hr) was 11. The “Survival (%) post bacterial challenge” value ([15]; single dose, 72 hr) was 73%, the “Survival post bacterial challenge” value ([15]; single dose, 96 hr) was 11 and the “Survival (%) post bacterial challenge” value ([15]; single dose, 96 hr) was 73%.
